Test results: US5430058A, “Pharmaceutical compositions comprising hydroxamate derivatives for iron removal” (Yeda Research and Development Co. Ltd., priority 1993, dated 1995)

Experiments:
[1] = Extraction of iron from aqueous FeCl3/citrate into chloroform; assay type: physicochemical; conditions: 0.3 mM in chloroform vs 0.3 mM FeCl3, 0.3 mM citric acid, 40 mM TRIS, pH 6.9, overnight
Experimental: d. Extractions were performed by overnight equilibration of 0.3 mM chloroform solutions of reversed siderophore with aqueous solutions of 0.3 mM FeCl3, 0.3 mM citric acid, 40 mM TRIS, pH 6.9. The amount of iron taken up into the organic phase was determined by the absorption of the iron+complex at 430 nm. No iron uptake into chloroform solutions devoid of RSF was observed by ion chromatography.

normal red cells = test: Uptake of 59Fe-carrier complexes into normal red cells; assay type: cell-based, human; conditions: iron(III) complex, normal red cells
Experimental: (§1) k. Uptake of radioactive carrier-Fe complexes. DFO and the different SF derivatives were pre-complexed with iron by addition of concentrated stock solutions of 20 mg/ml carriers to ^59 FeCl3 (Amersham, England) in 0.5 ml of 150 mM NaCl, 10 mM Hepes at 3-5 molar excess of carrier for 1 hour at room temperature. To begin the flux, normal or parasitized red cells that had been washed 3 times in saline buffer and resuspended in the same buffer supplemented with 5% bovine serum albumin (BSA), 2.5 mM citrate, 2 mg/ml glucose were added to radioactive ^59 Fe-complexes at a final suspension of 20% hematocrit. After incubation at 37° C., 75 μl suspension was removed in duplicate aliquots for each time point, placed in plastic 15 ml test tube (Starstedt) and centrifuged 1 minute at 2,500 g. The supernatant was removed and the pellet immediately placed on ice. After all sampling was completed the pellets were washed twice in 15 ml of ice cold buffer containing 50 mM EDTA and lysed in distilled water. Radioactivity (Gamma emission, 700-1300 Kev) was counted and the cell number for each sample determined from hemoglobin absorption of the lysate at 410 nm.
Due to the fact that RSF's have markedly greater lipophilicity than DFO, they were expected to faster penetrate and therefore more effectively chelate intracellular iron after short exposure times. Penetration of RSF's into normal and infected red cells was estimated by monitoring uptake of the RSF's-^59 Fe(III) complexes into infected and uninfected cells and compared to DFO. In order to confirm actual uptake of Fe-RSF ileun2 rather than adsorption to the outer membrane, cells were thoroughly washed and lysates were subjected to 80,000g×20 min centrifugation. More than 90% of the total counts were found in the cytosol fraction (results not shown).
FIGS. 8a and 8b show uptake of Fe^59 -carrier complexes into normal and infected red cells. Uptake of ^59 -Fe-RSF (FIG. 8a) and ^59 Fe-DFO (FIG. 8b) into normal (open symbols) and infected (closed symbols) red cells (60% parasitemia, >90% trophozoites). The carriers were pre-complexed to ^59 FeCl3 at 4:1 ration in DMSO with 5 μM external FeCl3 (from methanolic stock solutions). The radioactive complexes were then added to 20% hematocrit cell suspensions and flux was measured. Specific activity was 485000 cpm/nmole and 369000 cpm/nmole for the RSF and DFO uptake experiments, respectively. Cell number was determined from hemoglobin absorption of lysate at 410 nm.

plasma = test: Pre-incubation of plasma with chelator, effect on parasite growth; assay type: cell-based, human; conditions: 40 fold IC50, then dialysis
Experimental: h. The effect of pre-incubation of red cells or plasma with drug on parasite growth. Red cell suspensions (5% hematocrit) in RPMI 1640 medium pH 7.4 (no plasma) were treated for 24-48 hrs with either 100 μg/ml of chelator or DMSO alone (<1% final concentration) in culture conditions. Chelator was removed by washing the cells 4 times with RPMI followed by 1 hour incubation at 37° C. Parasite growth was assayed after addition of gelatin enriched schizonts (>90%) as described above. […] The plasma was subsequently dialyzed for 24 hours against 800 ml 0.1% bovine serum albumin (BSA), and 10 mM glucose in phosphate buffered saline (PBS) pH 7.4, followed by an additional 24 hour dialysis against 400 ml of the same buffer and supplemented to the medium for parasite growth assays.
(§2) Plasma and uninfected red cells were separately treated with relatively high concentrations of chelators (100 μg/ml) in order to evaluate whether the site of action of the lipophilic chelators was associated with components of the plasma and/or the uninfected red cell.

infected red cells = test: Extraction of chelatable iron, infected red cells (IRC); assay type: cell-based, human erythrocytes infected with P. falciparum; conditions: 12 μM
Experimental: l. Extraction of chelatable iron. Trophozoite stage parasites were obtained from step gradient of Percoll-3% L-alanine in phosphate buffered saline (10 mM Na-phosphate, 150 mM NaCl, pH 7.4). Cell suspensions of 100% parasitemia were adjusted to 1% hematocrit and placed in RPMI growth medium supplemented with 50 mM sucrose and 20 mM glucose. Pretreatment of cells was done with 12 μM of the indicated SF derivative or DMSO for 2 hours at 37° C. at which time the cells were washed twice in 500× volume of buffer containing 150 mM NaCl, 10 mM HEPES and 50 mM sucrose pH=7.4 Next the cells were incubated for additional 3 hours in 6.8 μM NBD-DFO and washed to remove fluorescent probe. Measurements of chelatable iron were carried out in the TCA soluble fraction of freeze thaw lysates as described by Lytton, S. D. et al., 1991 Mol. Pharmacol. 40:584-590.
Iron extractions were performed on cell suspensions treated (yes) or untreated (no) with 12 μM RSF n2-ileu for 2 hours at 37° C. Fluorescence assays of chelatable iron in non-infected (NRC) and in parasitized (IRC) red cells were carried out as described by Lytton et al., (1991) Mol. Pharmacol. 40:584.

uninfected red cells = test: Pre-incubation of uninfected red cells with chelator, effect on parasite growth; assay type: cell-based, human
Experimental: h. The effect of pre-incubation of red cells or plasma with drug on parasite growth. Red cell suspensions (5% hematocrit) in RPMI 1640 medium pH 7.4 (no plasma) were treated for 24-48 hrs with either 100 μg/ml of chelator or DMSO alone (<1% final concentration) in culture conditions. Chelator was removed by washing the cells 4 times with RPMI followed by 1 hour incubation at 37° C. Parasite growth was assayed after addition of gelatin enriched schizonts (>90%) as described above. Human plasma (2 ml) from O+ donors was adjusted to either pH 5 with MES (to enhance chelating efficiency) or pH 7.4 (with TRIS base), and treated for 18 hrs with 100 μg/ml chelators or with DMSO. The plasma was subsequently dialyzed for 24 hours against 800 ml 0.1% bovine serum albumin (BSA), and 10 mM glucose in phosphate buffered saline (PBS) pH 7.4, followed by an additional 24 hour dialysis against 400 ml of the same buffer and supplemented to the medium for parasite growth assays.
as §2

[2] = amino acid side chain, Tanford/Segret's scale as given by Eisenberg 1984; cited from earlier work
[3] = tested on: normal and infected red cells; test: Distribution of 59Fe counts after uptake (80,000g lysate fractionation); assay type: cell-based, human; conditions: 59Fe complex, lysates 80,000g×20 min
Experimental: as §1
Due to the fact that RSF's have markedly greater lipophilicity than DFO, they were expected to faster penetrate and therefore more effectively chelate intracellular iron after short exposure times. […]

Compound: CC[C@H](C)[C@H](NC(=O)CCOCC(CC)(COCCC(=O)N[C@H](C(=O)N(C)O)[C@@H](C)CC)COCCC(=O)N[C@H](C(=O)N(C)O)[C@@H](C)CC)C(=O)N(C)O [SF1-ileu]
- Extraction efficiency [1]: 52
- Time to maximum uptake (normal red cells): 10 to 15 min
- Maximum uptake level (normal red cells; 5 μM external Fe): 4 nmoles/10^10 cells
- Uptake t1/2 (normal red cells; 5 μM external Fe): 2 to 3 min
- Ability of plasma to support parasite growth after pre-treatment (plasma): no significant effect
- Chelatable iron after RSF pretreatment (infected red cells; Experiment 1, IRC, 2 hours at 37° C (untreated 4.6)): 0.9 nmoles/10^10 cells
- Chelatable iron after RSF pretreatment (infected red cells; Experiment 2, IRC, 2 hours at 37° C (untreated 2.9)): 0.3 nmoles/10^10 cells
- Reduction of chelatable iron (infected red cells; pretreatment of trophozoites, 2 hours): 5-10 fold
- Ability of red cells to support parasite growth after pre-treatment (uninfected red cells; 24 hour exposure, 40 fold IC50, then washing): no significant effect
- Effect on ability of uninfected cells to support parasite growth (uninfected red cells; general statement): does not affect irreversibly the ability of uninfected cells to support parasite growth
- Hydrophobicity [2]: 5.0
- Total counts found in the cytosol fraction [3]: More than 90%
